Experimental data taken from the NIST ThermoML archive (doi:10.1021/je060271a).
Values joined by “and” are separate entries in the source; they are usually repeats but may differ in a detail not shown here. Equal values may be shown once. Numbers after ± are expanded uncertainties.

Conditions: Liquid, Vibrating tube method

CCCC(=O)OCC(COC(=O)CCC)(COC(=O)CCC)COC(=O)CCC [pentaerythritol tetrabutyrate]
Conditions | mass density
323.15 K, 30112 kPa | 1045 ± 1.3 kg/m3
323.15 K, 30149 kPa | 1045.1 ± 1.3 kg/m3
323.15 K, 30193 kPa | 1045.1 ± 1.3 kg/m3
323.15 K, 30232 kPa | 1045.2 ± 1.3 kg/m3
323.15 K, 30562 kPa | 1045.3 ± 1.3 kg/m3
323.15 K, 30601 kPa | 1045.3 ± 1.3 kg/m3
323.15 K, 30640 kPa | 1045.5 ± 1.3 kg/m3
323.15 K, 30680 kPa | 1045.4 ± 1.3 kg/m3
323.15 K, 30730 kPa | 1045.5 ± 1.3 kg/m3
323.15 K, 30771 kPa | 1045.5 ± 1.3 kg/m3
323.15 K, 30818 kPa | 1045.4 ± 1.3 kg/m3
323.15 K, 30850 kPa | 1045.6 ± 1.3 kg/m3
323.15 K, 30881 kPa | 1045.6 ± 1.3 kg/m3
323.15 K, 30918 kPa | 1045.7 ± 1.3 kg/m3
323.15 K, 30948 kPa | 1045.6 ± 1.3 kg/m3
323.15 K, 30979 kPa | 1045.6 ± 1.3 kg/m3
323.15 K, 31009 kPa | 1045.7 ± 1.3 kg/m3
323.15 K, 31047 kPa | 1045.6 ± 1.3 kg/m3
323.15 K, 31079 kPa | 1045.6 ± 1.3 kg/m3
323.15 K, 31110 kPa | 1045.6 ± 1.3 kg/m3
323.15 K, 31146 kPa | 1045.7 ± 1.3 kg/m3
323.15 K, 31178 kPa | 1045.9 ± 1.3 kg/m3
323.15 K, 31209 kPa | 1045.6 ± 1.3 kg/m3
323.15 K, 31247 kPa | 1045.7 ± 1.3 kg/m3
323.15 K, 31278 kPa | 1045.7 ± 1.3 kg/m3
323.15 K, 31310 kPa | 1045.8 ± 1.3 kg/m3
323.15 K, 31347 kPa | 1045.9 ± 1.3 kg/m3
323.15 K, 31379 kPa | 1045.9 ± 1.3 kg/m3
323.15 K, 31411 kPa | 1045.8 ± 1.3 kg/m3
323.15 K, 31450 kPa | 1045.8 ± 1.3 kg/m3
323.15 K, 31481 kPa | 1045.9 ± 1.3 kg/m3
323.15 K, 31513 kPa | 1045.9 ± 1.3 kg/m3
323.15 K, 31546 kPa | 1046 ± 1.3 kg/m3
323.15 K, 31584 kPa | 1045.9 ± 1.3 kg/m3
323.15 K, 31616 kPa | 1046 ± 1.3 kg/m3
323.15 K, 31649 kPa | 1046 ± 1.3 kg/m3
323.15 K, 31690 kPa | 1046 ± 1.3 kg/m3
323.15 K, 31725 kPa | 1046 ± 1.3 kg/m3
323.15 K, 31758 kPa | 1046 ± 1.3 kg/m3
323.15 K, 31791 kPa | 1046 ± 1.3 kg/m3
323.15 K, 31830 kPa | 1046.2 ± 1.3 kg/m3
323.15 K, 31863 kPa | 1046.2 ± 1.3 kg/m3
323.15 K, 31896 kPa | 1046.1 ± 1.3 kg/m3
323.15 K, 31936 kPa | 1046.2 ± 1.3 kg/m3
323.15 K, 31970 kPa | 1046.2 ± 1.3 kg/m3
323.15 K, 32003 kPa | 1046.3 ± 1.3 kg/m3
323.15 K, 32043 kPa | 1046.2 ± 1.3 kg/m3
323.15 K, 32151 kPa | 1046.3 ± 1.3 kg/m3
323.15 K, 32179 kPa | 1046.3 ± 1.3 kg/m3
323.15 K, 32219 kPa | 1046.4 ± 1.3 kg/m3
323.15 K, 32253 kPa | 1046.3 ± 1.3 kg/m3
323.15 K, 32288 kPa | 1046.4 ± 1.3 kg/m3
323.15 K, 32328 kPa | 1046.5 ± 1.3 kg/m3
323.15 K, 32362 kPa | 1046.4 ± 1.3 kg/m3
323.15 K, 32403 kPa | 1046.5 ± 1.3 kg/m3
323.15 K, 32437 kPa | 1046.5 ± 1.3 kg/m3
323.15 K, 32472 kPa | 1046.5 ± 1.3 kg/m3
323.15 K, 32506 kPa | 1046.5 ± 1.3 kg/m3
323.15 K, 32548 kPa | 1046.5 ± 1.3 kg/m3
323.15 K, 32583 kPa | 1046.6 ± 1.3 kg/m3
323.15 K, 32618 kPa | 1046.6 ± 1.3 kg/m3
323.15 K, 32660 kPa | 1046.7 ± 1.3 kg/m3
323.15 K, 32694 kPa | 1046.6 ± 1.3 kg/m3
323.15 K, 32737 kPa | 1046.6 ± 1.3 kg/m3
323.15 K, 32772 kPa | 1046.7 ± 1.3 kg/m3
323.15 K, 32808 kPa | 1046.9 ± 1.3 kg/m3
323.15 K, 32843 kPa | 1046.6 ± 1.3 kg/m3
323.15 K, 32886 kPa | 1046.8 ± 1.3 kg/m3
323.15 K, 32921 kPa | 1046.8 ± 1.3 kg/m3
323.15 K, 33152 kPa | 1046.9 ± 1.3 kg/m3
323.15 K, 33188 kPa | 1047 ± 1.3 kg/m3
323.15 K, 33232 kPa | 1046.9 ± 1.3 kg/m3
323.15 K, 33268 kPa | 1047 ± 1.3 kg/m3
323.15 K, 33305 kPa | 1046.9 ± 1.3 kg/m3
323.15 K, 33386 kPa | 1047 ± 1.3 kg/m3
323.15 K, 33430 kPa | 1047.1 ± 1.3 kg/m3
323.15 K, 33468 kPa | 1047.2 ± 1.3 kg/m3
323.15 K, 33504 kPa | 1047.1 ± 1.3 kg/m3
323.15 K, 33549 kPa | 1047.2 ± 1.3 kg/m3
323.15 K, 33587 kPa | 1047.2 ± 1.3 kg/m3
323.15 K, 33625 kPa | 1047.2 ± 1.3 kg/m3
323.15 K, 33664 kPa | 1047.2 ± 1.3 kg/m3
323.15 K, 33690 kPa | 1047.2 ± 1.3 kg/m3
323.15 K, 33710 kPa | 1047.3 ± 1.3 kg/m3
323.15 K, 33750 kPa | 1047.2 ± 1.3 kg/m3
323.15 K, 33797 kPa | 1047.3 ± 1.3 kg/m3
323.15 K, 33837 kPa | 1047.4 ± 1.3 kg/m3
323.15 K, 34013 kPa | 1047.4 ± 1.3 kg/m3
323.15 K, 34067 kPa | 1047.4 ± 1.3 kg/m3
323.15 K, 34113 kPa | 1047.7 ± 1.3 kg/m3
323.15 K, 34161 kPa | 1047.5 ± 1.3 kg/m3
323.15 K, 34221 kPa | 1047.5 ± 1.3 kg/m3
323.15 K, 34272 kPa | 1047.7 ± 1.3 kg/m3
323.15 K, 34276 kPa | 1047.6 ± 1.3 kg/m3
323.15 K, 34313 kPa | 1047.6 ± 1.3 kg/m3
323.15 K, 34342 kPa | 1047.6 ± 1.3 kg/m3
323.15 K, 34379 kPa | 1047.7 ± 1.3 kg/m3
323.15 K, 34410 kPa | 1047.7 ± 1.3 kg/m3
323.15 K, 34436 kPa | 1047.7 ± 1.3 kg/m3
323.15 K, 34450 kPa | 1047.8 ± 1.3 kg/m3
323.15 K, 34468 kPa | 1047.9 ± 1.3 kg/m3
323.15 K, 34568 kPa | 1047.8 ± 1.3 kg/m3
323.15 K, 34570 kPa | 1047.8 ± 1.3 kg/m3 and 1047.9 ± 1.3 kg/m3
323.15 K, 34571 kPa | 1047.7 ± 1.3 kg/m3
323.15 K, 34572 kPa | 1047.7 ± 1.3 kg/m3 and 1047.9 ± 1.3 kg/m3 and 1047.8 ± 1.3 kg/m3
343.13 K, 2755.8 kPa | 1010.1 ± 1.2 kg/m3
343.13 K, 2840 kPa | 1010.2 ± 1.2 kg/m3
343.13 K, 4339.6 kPa | 1011.5 ± 1.2 kg/m3
343.14 K, 104.4 kPa | 1008.1 ± 1.2 kg/m3
343.14 K, 105.3 kPa | 1008.1 ± 1.2 kg/m3
343.14 K, 105.8 kPa | 1008.1 ± 1.2 kg/m3
343.14 K, 106.3 kPa | 1008.1 ± 1.2 kg/m3
343.14 K, 107.5 kPa | 1008.2 ± 1.2 kg/m3
343.14 K, 108.6 kPa | 1008.2 ± 1.2 kg/m3
343.14 K, 110.3 kPa | 1008.1 ± 1.2 kg/m3
343.14 K, 112.9 kPa | 1008.2 ± 1.2 kg/m3
343.14 K, 116.2 kPa | 1008.1 ± 1.2 kg/m3
343.14 K, 121.8 kPa | 1008.1 ± 1.2 kg/m3
343.14 K, 129.6 kPa | 1008.1 ± 1.2 kg/m3
343.14 K, 141.1 kPa | 1008.3 ± 1.2 kg/m3
343.14 K, 155.9 kPa | 1008.2 ± 1.2 kg/m3
343.14 K, 167 kPa | 1008.1 ± 1.2 kg/m3
343.14 K, 181.6 kPa | 1008.1 ± 1.2 kg/m3
343.14 K, 200 kPa | 1008.2 ± 1.2 kg/m3
343.14 K, 216 kPa | 1008.1 ± 1.2 kg/m3
343.14 K, 226.6 kPa | 1008.2 ± 1.2 kg/m3
343.14 K, 238.6 kPa | 1008.3 ± 1.2 kg/m3
343.14 K, 252.1 kPa | 1008.2 ± 1.2 kg/m3
343.14 K, 267.4 kPa | 1008.2 ± 1.2 kg/m3
343.14 K, 284.6 kPa | 1008.3 ± 1.2 kg/m3
343.14 K, 304.8 kPa | 1008.3 ± 1.2 kg/m3
343.14 K, 328.1 kPa | 1008.2 ± 1.2 kg/m3
343.14 K, 354.2 kPa | 1008.2 ± 1.2 kg/m3
343.14 K, 383.4 kPa | 1008.3 ± 1.2 kg/m3
343.14 K, 404.4 kPa | 1008.4 ± 1.2 kg/m3
343.14 K, 419.5 kPa | 1008.4 ± 1.2 kg/m3
343.14 K, 436.2 kPa | 1008.5 ± 1.2 kg/m3
343.14 K, 541.8 kPa | 1008.4 ± 1.2 kg/m3
343.14 K, 568.7 kPa | 1008.5 ± 1.2 kg/m3
343.14 K, 598.4 kPa | 1008.6 ± 1.2 kg/m3
343.14 K, 626.6 kPa | 1008.5 ± 1.2 kg/m3
343.14 K, 662.6 kPa | 1008.4 ± 1.2 kg/m3
343.14 K, 698.7 kPa | 1008.5 ± 1.2 kg/m3
343.14 K, 717.3 kPa | 1008.6 ± 1.2 kg/m3
343.14 K, 736.7 kPa | 1008.6 ± 1.2 kg/m3
343.14 K, 752.7 kPa | 1008.6 ± 1.2 kg/m3
